{"source": "patent US20100130604A1", "about": "“USE OF ROSMARINIC ACID IN MANUFACTURE OF MEDICAMENTS FOR TREATING OR PREVENTING HEPATIC AND RENAL DISEASES” (SHANGDONG LUYE NATURAL DRUG RESEARCH AND DEVELOPMENT CO., …, priority 2006, published 2010)", "test_system": "hepatofibrosis in rats", "test": "CCl4-induced hepatofibrosis in chronic hepatitis in rats", "format": "in vivo, Sprague Dawley rats", "details": "for fiber proliferation level III (number of rats) / fiber proliferation level IV (number of rats) / T (Rank-sum test of fibrosis) / fiber proliferation level 0 (number of rats) / fiber proliferation level I (number of rats) / fiber proliferation level II (number of rats) / HYP / HA / LN / PCIII: 6 weeks; for fiber proliferation level III (number of rats) / fiber proliferation level IV (number of rats) / fiber proliferation level 0 (number of rats) / fiber proliferation level I (number of rats) / fiber proliferation level II (number of rats): n=10; for HYP: hepatic; for HA / LN / PCIII: serum", "protocol": "120 rats were randomly divided into 12 groups, with 10 in each group, namely, a normal control group, a model group, […] Apart from the normal control group, all rats were s.c. injected 0.3 ml of 40% solution of CC14 in oil per 100 g of body weight once every 3 days for 6 weeks. Animals in the normal control group were s.c. injected 0.3 ml/100 g body weight of oil vehicle following the same schedule as the experimental groups. First dose was doubled for all animals. Six weeks later, drugs were continuously administered to animals in each group for 6 weeks. After the administration was completed, all animals were anaesthetised with i.p. injection of 20% ethyl carbamate solution (Beijing Tongxian District Yucai Fine Chemicals). Blood was collected from abdominal aorta. Hepatic lobule tissue was removed, part of which was fixed with 10% neutral foinialin solution and made into wax blocks within 24-48 hours. […] Serum HA, LN, Pc III levels and hepatic HYP level were determined according to the respective kit instructions.", "note": "Marks after values point to notes of the source that are not given here."}
{"molecule": "O=C(/C=C/c1ccc(O)c(O)c1)O[C@H](Cc1ccc(O)c(O)c1)C(=O)O", "note": "[RA, R(+)2-{[3-(3,4-dihydroxylphenyl-(oxo-2-propenyl)oxy]3,4-dihydroxylphenylpropionic acid]}]", "values": [{"measurement": "fiber proliferation level III (number of rats)", "setting": "RA p.o. 2.5 mg/kg", "value": 3}, {"measurement": "fiber proliferation level IV (number of rats)", "setting": "RA p.o. 2.5 mg/kg", "value": 4}, {"measurement": "T (Rank-sum test of fibrosis)", "setting": "RA p.o. 5 mg/kg", "value": "77*"}, {"measurement": "fiber proliferation level 0 (number of rats)", "setting": "RA p.o. 5 mg/kg", "value": 0}, {"measurement": "fiber proliferation level I (number of rats)", "setting": "RA p.o. 5 mg/kg", "value": 1}, {"measurement": "fiber proliferation level II (number of rats)", "setting": "RA p.o. 5 mg/kg", "value": 2}, {"measurement": "fiber proliferation level III (number of rats)", "setting": "RA p.o. 5 mg/kg", "value": 7}, {"measurement": "fiber proliferation level IV (number of rats)", "setting": "RA p.o. 5 mg/kg", "value": 0}, {"measurement": "T (Rank-sum test of fibrosis)", "setting": "RA p.o. 25 mg/kg", "value": "71**"}, {"measurement": "fiber proliferation level 0 (number of rats)", "setting": "RA p.o. 25 mg/kg", "value": 0}, {"measurement": "fiber proliferation level I (number of rats)", "setting": "RA p.o. 25 mg/kg", "value": 3}, {"measurement": "fiber proliferation level II (number of rats)", "setting": "RA p.o. 25 mg/kg", "value": 2}, {"measurement": "fiber proliferation level III (number of rats)", "setting": "RA p.o. 25 mg/kg", "value": 5}, {"measurement": "fiber proliferation level IV (number of rats)", "setting": "RA p.o. 25 mg/kg", "value": 0}, {"measurement": "T (Rank-sum test of fibrosis)", "setting": "RA p.o. 150 mg/kg", "value": "66**"}, {"measurement": "fiber proliferation level 0 (number of rats)", "setting": "RA p.o. 150 mg/kg", "value": 0}, {"measurement": "fiber proliferation level I (number of rats)", "setting": "RA p.o. 150 mg/kg", "value": 3}, {"measurement": "fiber proliferation level II (number of rats)", "setting": "RA p.o. 150 mg/kg", "value": 4}, {"measurement": "fiber proliferation level III (number of rats)", "setting": "RA p.o. 150 mg/kg", "value": 3}, {"measurement": "fiber proliferation level IV (number of rats)", "setting": "RA p.o. 150 mg/kg", "value": 0}, {"measurement": "T (Rank-sum test of fibrosis)", "setting": "RA p.o. 300 mg/kg", "value": "66**"}, {"measurement": "fiber proliferation level 0 (number of rats)", "setting": "RA p.o. 300 mg/kg", "value": 0}, {"measurement": "fiber proliferation level I (number of rats)", "setting": "RA p.o. 300 mg/kg", "value": 2}, {"measurement": "fiber proliferation level II (number of rats)", "setting": "RA p.o. 300 mg/kg", "value": 5}, {"measurement": "fiber proliferation level III (number of rats)", "setting": "RA p.o. 300 mg/kg", "value": 2}, {"measurement": "fiber proliferation level IV (number of rats)", "setting": "RA p.o. 300 mg/kg", "value": 1}, {"measurement": "liver, electronic microscopic examination", "setting": "RA treated groups", "value": "hepatocyte damages were alleviated"}, {"measurement": "liver, light microscopic examination (HE, VG collagen staining)", "setting": "RA treated groups", "value": "less fiber connective tissue hyperplasia, thinner fibrous septa and less pseudolobule formation"}, {"measurement": "liver fibrosis, pathology examination", "setting": "all RA treated groups vs model group", "value": "less severe fibrosis"}, {"measurement": "HYP", "setting": "i.v. 2.5 mg/kg", "value": "1657 ± 124", "unit": "µg/L"}, {"measurement": "HYP", "setting": "i.v. 5 mg/kg", "value": "1630 ± 110", "unit": "µg/L"}, {"measurement": "HYP", "setting": "i.v. 25 mg/kg", "value": "1578 ± 113", "unit": "µg/L"}, {"measurement": "HYP", "setting": "i.v. 75 mg/kg", "value": "1278 ± 121", "unit": "µg/L"}, {"measurement": "HYP", "setting": "i.v. 150 mg/kg", "value": "1217 ± 143", "unit": "µg/L"}, {"measurement": "HYP", "setting": "p.o. 2.5 mg/kg", "value": "1724 ± 121", "unit": "µg/L"}, {"measurement": "HYP", "setting": "p.o. 5 mg/kg", "value": "1614 ± 121", "unit": "µg/L"}, {"measurement": "HYP", "setting": "p.o. 25 mg/kg", "value": "1535 ± 125", "unit": "µg/L"}, {"measurement": "HYP", "setting": "p.o. 150 mg/kg", "value": "1299 ± 153", "unit": "µg/L"}, {"measurement": "HYP", "setting": "p.o. 300 mg/kg", "value": "1250 ± 174", "unit": "µg/L"}, {"measurement": "fibrosis (Rank-sum test)", "setting": "i.v. 2.5, 5, 25, 75, 150 mg/kg, p.o. 5, 25, 150, 300 mg/kg", "value": "can significantly reduce fibrosis"}, {"measurement": "HA, LN, Pc III and HYP levels vs model group", "setting": "i.v. 2.5, 5, 25, 75, 150 mg/kg, p.o. 5, 25, 150, 300 mg/kg, p<0.05 or 0.01", "value": "can all significantly reduce HA, LN, Pc III, and HYP levels"}, {"measurement": "HA", "setting": "i.v. 2.5 mg/kg", "value": "111.2 ± 24.1", "unit": "µg/L"}, {"measurement": "LN", "setting": "i.v. 2.5 mg/kg", "value": "72.6 ± 19.0", "unit": "µg/L"}, {"measurement": "PCIII", "setting": "i.v. 2.5 mg/kg", "value": "36.2 ± 7.8", "unit": "µg/L"}, {"measurement": "HA", "setting": "i.v. 5 mg/kg", "value": "106.3 ± 23.4", "unit": "µg/L"}, {"measurement": "LN", "setting": "i.v. 5 mg/kg", "value": "68.3 ± 17.9", "unit": "µg/L"}, {"measurement": "PCIII", "setting": "i.v. 5 mg/kg", "value": "34.2 ± 7.6", "unit": "µg/L"}, {"measurement": "HA", "setting": "i.v. 25 mg/kg", "value": "97.5 ± 23.6", "unit": "µg/L"}, {"measurement": "LN", "setting": "i.v. 25 mg/kg", "value": "62.0 ± 20.0", "unit": "µg/L"}, {"measurement": "PCIII", "setting": "i.v. 25 mg/kg", "value": "31.4 ± 7.8", "unit": "µg/L"}, {"measurement": "HA", "setting": "i.v. 75 mg/kg", "value": "77.9 ± 20.7", "unit": "µg/L"}, {"measurement": "LN", "setting": "i.v. 75 mg/kg", "value": "57.6 ± 16.8", "unit": "µg/L"}, {"measurement": "PCIII", "setting": "i.v. 75 mg/kg", "value": "26.5 ± 9.1", "unit": "µg/L"}, {"measurement": "HA", "setting": "i.v. 150 mg/kg", "value": "74.6 ± 18.9", "unit": "µg/L"}, {"measurement": "LN", "setting": "i.v. 150 mg/kg", "value": "55.3 ± 14.6", "unit": "µg/L"}, {"measurement": "PCIII", "setting": "i.v. 150 mg/kg", "value": "25.7 ± 7.8", "unit": "µg/L"}, {"measurement": "HA", "setting": "p.o. 2.5 mg/kg", "value": "113.8 ± 24.8", "unit": "µg/L"}, {"measurement": "LN", "setting": "p.o. 2.5 mg/kg", "value": "79.1 ± 19.4", "unit": "µg/L"}, {"measurement": "PCIII", "setting": "p.o. 2.5 mg/kg", "value": "38.0 ± 7.5", "unit": "µg/L"}, {"measurement": "HA", "setting": "p.o. 5 mg/kg", "value": "104.3 ± 26.4", "unit": "µg/L"}, {"measurement": "LN", "setting": "p.o. 5 mg/kg", "value": "69.3 ± 16.9", "unit": "µg/L"}, {"measurement": "PCIII", "setting": "p.o. 5 mg/kg", "value": "33.7 ± 7.3", "unit": "µg/L"}, {"measurement": "HA", "setting": "p.o. 25 mg/kg", "value": "97.0 ± 24.6", "unit": "µg/L"}, {"measurement": "LN", "setting": "p.o. 25 mg/kg", "value": "61.0 ± 20.6", "unit": "µg/L"}, {"measurement": "PCIII", "setting": "p.o. 25 mg/kg", "value": "31.6 ± 7.2", "unit": "µg/L"}, {"measurement": "HA", "setting": "p.o. 150 mg/kg", "value": "84.9 ± 20.5", "unit": "µg/L"}, {"measurement": "LN", "setting": "p.o. 150 mg/kg", "value": "59.6 ± 16.8", "unit": "µg/L"}, {"measurement": "PCIII", "setting": "p.o. 150 mg/kg", "value": "27.5 ± 9.6", "unit": "µg/L"}, {"measurement": "HA", "setting": "p.o. 300 mg/kg", "value": "80.7 ± 18.6", "unit": "µg/L"}, {"measurement": "LN", "setting": "p.o. 300 mg/kg", "value": "57.3 ± 18.6", "unit": "µg/L"}, {"measurement": "PCIII", "setting": "p.o. 300 mg/kg", "value": "26.9 ± 10.5", "unit": "µg/L"}]}
